Measured values published in patent US10822535B2, “Modified acid compositions as alternatives to conventional acids in the oil and gas industry” (Fluid Energy Group Ltd., priority 2017, dated 2020).
In brackets after ≈: the same amount, converted by molar mass. Like-named read-outs stand apart in the source and are kept apart here.

Experiments:
[1] = test system: Cyprinodon variegatus; test: Marine fish 96 h limit test (OSPAR); format: in vivo; conditions: 96 h exposure at 199.7 mg/l (Water Accommodated Fraction)
Experimental: This study was commissioned to determine the aquatic (96 h limit test) toxicity of the composition of monoethanolamine to the marine fish Cyprinodon variegatus.
There were no interferences in this test. Test conditions of exposure were within formal and informal limits of acceptability except for the exception noted below. There were ten fish used in both the test and control tanks, with no control mortality observed.
The test concentration was derived from the test material EC/LC50 value between the most sensitive acute toxicity test species Skeletonema sp. and A. tonsa.

[2] = test system: Corophium volutator; test: Sediment bioassay using an amphipod (OSPARCOM 2006 Part A); format: in vivo; conditions: sediment phase, via dried sediment, nominal concentrations
Experimental: OSPARCOM Guidelines (2006) Part A. A Sediment Bioassay Using an Amphipod Corophium sp
This study was commissioned to determine the sediment phase toxicity of the composition of monoethanolamine to the intertidal amphipod Corophium volutator. […] The result is based on nominal concentrations and was calculated by Linear Interpolation within the CETIS suite of statistical analysis.

[3] = test system: Skeletonema sp.; test: Marine algal growth inhibition test (ISO 10253); format: cell-based; conditions: 72 h, WAFs, nominal concentrations, read-out: 72 h EC(r)50
Description: ISO 10253 (2016) Water Quality—Marine Algal Growth Inhibition Test with Skeletonema Sp. This study was commissioned to determine the aquatic phase toxicity of the composition of monoethanolamine to the marine unicellular algae Skeletonema sp. […] It is the results from this test that has been reported.

[4] = Acute lethal toxicity to marine copepods (ISO 14669); conditions: Acartia tonsa (marine copepod), in vivo, other: aquatic phase (waterborne exposure), Water Accommodated Fraction, nominal concentrations
Experimental: A series of test were carried out to assess the environmental impact of monoethanoamine. A stock solution of 98-99% pure monoethanolamine was sent to be tested. The solution was diluted where necessary.
Determination of Acute Lethal Toxicity to Marine Copepods (Copepoda; Crustacea) (ISO 14669 (1999) Water Quality)
This study was commissioned to determine the aquatic phase toxicity of monoethanolamine to the marine copepod Acartia tonsa. The A. tonsa toxicity LC50 test was conducted in accordance with the study plan except for the following deviation and interferences but met all other relevant validity criteria. In the definitive test the temperature of the dilution water was below acceptable limits by a maximum of 0.7° C., the pH was below acceptable limits by a maximum of 0.01 units. These deviations were not expected to have an impact on the test as there was no control mortalities.

[5] = Aerobic degradability in seawater (OECD 306)
Experimental: This study was commissioned to determine the aerobic degradability of the composition of monoethanolamine in seawater. […] The ThODNO3 value was determined from the chemical formula of the compound tested.
The OECD 306 guideline states the test material can be considered to be inhibitory to bacteria (at the concentration used) if the BOD of the mixture of reference and test materials is less than the sum of the BOD of the separate solutions of the two substances.

In the case of `NCCO` [monoethanolamine], the mortality [1] is reported as “no mortalities”, the “10 day LC50” value [2] is reported as 6,660 mg/kg and the EC50 ([3]; definitive test) is reported as 200 µg/mL (≈ 3.27 mM). The EC50 ([3]; range-finding test) was 509 µg/mL (≈ 8.33 mM), the LC50 at 48 h ([4]; 48 h LC50, definitive test, seawater) was 434 µg/mL (≈ 7.1 mM) and the LC50 at 48 h ([4]; 48 h LC50, range-finding test) was 550 µg/mL (≈ 9 mM). The biodegradation [5] was 71% and the “percentage inhibition of bacteria” value ([5]; in 28 days) was 12%.

For `O=C([O-])c1ccccc1.[Na+]` [sodium benzoate, reference compound], the “degradation of reference material” value ([5]; first 14 days, seawater) was “more than 60%”.
